According to US20050171053A1, “Carrageenan based antimicrobial compositions” (FMC Corporation, priority 2002, published 2005):
Entries after “also recorded” stand apart in the source; their conditions may differ.

How the values were obtained:
[1] = in vivo, po; cited from earlier work
[2] = in vivo, po; cited from earlier work; remark: listed apart in the source
HSV-2 = experiment: HSV-2/mouse system, formulations with and without LSA; format: in vivo, mice; conditions: for effect of addition to the K-II/λ carrageenan composition on efficacy against HSV-2 infection in mice: 5% added
Method: LSA-carrageenan was compared to carrageenan in the HSV-2/mouse system in order to determine efficacy in blocking viral infection in vivo.
Each formulation is initially tested in a total of 20 mice. Compounds or formulations that show a blocking effect are assayed again in another 20 mice.
Subsequently, LSA was assayed without Carrageenan to better evaluate its inhibitory properties. LSA was added to the inert thickener, methylcellulose, to maintain the same viscosity that vaginal products (lubricants, spermicides, and microbicides) generally have. (Data shown below.)

human papillomavirus = experiment: Protection of epithelial cells against human papillomavirus; format: cell-based
Description: (§1) LSA is effective as a microbicide against HSV-2 infection, HIV, and other STI's, with or without carrageenan. […] The inhibitory effect may be observed with other enveloped viruses such as the human pathogen, human T cell leukemia virus. In addition, epithelial cells are protected against the human papillomavirus, which is not an enveloped virus. The inhibitory efficaciousness of LSA may thus extend to a broader range of STI's.

HIV = experiment: Protection of epithelial cells in vitro against HIV infection; format: cell-based
Description: FIG. 5 is a plot of the percent inhibition by LSA of viral replication as measured by p24 ELISA.
as §1

[3] = system: androgenic, estrogenic and glucocorticoid-like (hepatic glycogen deposition) activity; conditions: cited from earlier work
[4] = Diffusion of NES through a dialysis membrane (HPLC); format: physicochemical; conditions: molecular weight cutoff 1000, HPLC
Description: FIG. 10 is a graph of the amount of Nestorone released from a composition containing the carrageenans of the present invention.
We examined diffusion of NES through a dialysis membrane with a molecular weight cutoff of 1000. The molecular weight of NES is 370. […] Results are illustrated in FIG. 10. […] However, the rate of diffusion observed through the dialysis membrane cannot be related to the rate of diffusion that would be observed in the human vagina as the rate of diffusion was dependant on the surface area of the dialysis bag. Conditions in the vagina would be different.
Diffusion of NES from CARRA/NES was investigated by two different methods, membrane dialysis and Ultrafree-15 centrifugation. In the membrane dialysis experiments, the membrane cutoff is 1,000, and diffusion of NES was measured by HPLC. […] In the Ultrafree-15 centrifugation experiments, a Millipore, Ultrafree-15 centrifugal filter and tube assembly was employed, which allows the passage of molecules of a MW<500 pass through; NES MW is 370.

[5] = in vivo; cited from earlier work
progestational potency = conditions: cited from earlier work

carrageenan
absorption [1]: virtually non-existent | breakdown in the gastrointestinal tract [1]: minimal at best | toxicity [2]: non-toxic

lignosulfonic acid [LSA]
effectiveness of LSA (HSV-2; concentration of 0.25%): highly effective | blocking of HSV-2 infection in mice by LSA without carrageenan (HSV-2; mouse, in vivo): more effective than carrageenan; also recorded: effective in protecting | protection of epithelial cells against human papillomavirus (human papillomavirus): protected | protection of epithelial cells against HIV infection (HIV): effective in protecting

heparin
effect of addition to the K-II/λ carrageenan composition on efficacy against HSV-2 infection in mice (HSV-2): had no effect on efficacy

dextran sulfate
effect of addition to the K-II/λ carrageenan composition on efficacy against HSV-2 infection in mice (HSV-2): had no effect on efficacy

C=C1C[C@H]2[C@@H]3CCC4=CC(=O)CC[C@@H]4[C@H]3CC[C@]2(C)[C@@]1(OC(C)=O)C(C)=O [NES, 16-methylene-17α-acetoxy-19-norpregn-4-ene-3,20-dione]
androgenic, estrogenic and glucocorticoid-like activity [3]: lack of androgenic, estrogenic and glucocorticoid-like | diffusion of NES through dialysis membrane [4]: diffused from the dialysis bag at a constant rate | metabolism upon oral administration [5]: rapid metabolism and inactivation | progestational activity relative to levonorgestrel (progestational potency): 10 times | progestational activity relative to progesterone (progestational potency): 100 times
